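Following 48 hours of exposure in 96-well plates, responses at five concentrations were used to interpolate endpoints linearly. TGI marks complete inhibition of growth.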
Key:
Test in all cases: growth of human tumour cells (NCI), 48 h
OVCAR-4 ovarian = tested on: OVCAR-4 ovarian
SNB-75 CNS = tested on: SNB-75 CNS
SK-OV-3 ovarian = tested on: SK-OV-3 ovarian
HOP-92 NSCLC = tested on: HOP-92 NSCLC
K-562 leukemia = tested on: K-562 leukemia
786-0 renal = tested on: 786-0 renal
HCT-15 colon = tested on: HCT-15 colon
NCI/ADR-RES ovarian = tested on: NCI/ADR-RES ovarian
MDA-MB-435 = tested on: MDA-MB-435
SK-MEL-2 melanoma = tested on: SK-MEL-2 melanoma
HOP-62 NSCLC = tested on: HOP-62 NSCLC
BT-549 breast = tested on: BT-549 breast
TK-10 renal = tested on: TK-10 renal
NCI-H522 lung = tested on: NCI-H522 lung
PC-3 prostate = tested on: PC-3 prostate
MDA-MB-231 breast = tested on: MDA-MB-231 breast
MOLT-4 leukemia = tested on: MOLT-4 leukemia
SR leukemia = tested on: SR leukemia
A498 renal = tested on: A498 renal
SK-MEL-28 melanoma = tested on: SK-MEL-28 melanoma
IGROV1 ovarian = tested on: IGROV1 ovarian
A549 NSCLC = tested on: A549 NSCLC
SN12C renal = tested on: SN12C renal
RXF 393 renal = tested on: RXF 393 renal
MDA-N = tested on: MDA-N
ACHN renal = tested on: ACHN renal
SF-539 CNS = tested on: SF-539 CNS
M14 melanoma = tested on: M14 melanoma
COLO 205 colon = tested on: COLO 205 colon
CCRF-CEM leukemia = tested on: CCRF-CEM leukemia
NCI-H226 lung = tested on: NCI-H226 lung
HT29 colon = tested on: HT29 colon
UACC-257 melanoma = tested on: UACC-257 melanoma
SK-MEL-5 melanoma = tested on: SK-MEL-5 melanoma
RPMI-8226 leukemia = tested on: RPMI-8226 leukemia
T-47D breast = tested on: T-47D breast
NCI-H23 lung = tested on: NCI-H23 lung
UO-31 renal = tested on: UO-31 renal
HL-60(TB) leukemia = tested on: HL-60(TB) leukemia
SF-268 CNS = tested on: SF-268 CNS
MALME-3M melanoma = tested on: MALME-3M melanoma
OVCAR-8 ovarian = tested on: OVCAR-8 ovarian
U251 CNS = tested on: U251 CNS
OVCAR-3 ovarian = tested on: OVCAR-3 ovarian
CAKI-1 renal = tested on: CAKI-1 renal
EKVX NSCLC = tested on: EKVX NSCLC
UACC-62 melanoma = tested on: UACC-62 melanoma
HS 578T breast = tested on: HS 578T breast
DU-145 prostate = tested on: DU-145 prostate
LOX IMVI melanoma = tested on: LOX IMVI melanoma
MCF7 breast = tested on: MCF7 breast
SNB-19 CNS = tested on: SNB-19 CNS
OVCAR-5 ovarian = tested on: OVCAR-5 ovarian
HCT-116 colon = tested on: HCT-116 colon
SF-295 CNS = tested on: SF-295 CNS
HCC-2998 colon = tested on: HCC-2998 colon
KM12 colon = tested on: KM12 colon
SW-620 colon = tested on: SW-620 colon
NCI-H460 lung = tested on: NCI-H460 lung

## COc1cc2c(cc1OC)[C@@](C)(C(O)C(O)C(C)(C)O)NCC2 (stereo partly drawn)
OVCAR-4 ovarian
  TGI: > 100 µM
SNB-75 CNS
  TGI: > 100 µM
SK-OV-3 ovarian
  TGI: > 100 µM
HOP-92 NSCLC
  TGI: > 100 µM
K-562 leukemia
  TGI: > 100 µM
786-0 renal
  TGI: > 100 µM
HCT-15 colon
  TGI: > 100 µM
NCI/ADR-RES ovarian
  TGI: > 100 µM
MDA-MB-435
  TGI: > 100 µM
SK-MEL-2 melanoma
  TGI: > 100 µM
HOP-62 NSCLC
  TGI: > 100 µM
BT-549 breast
  TGI: > 100 µM
TK-10 renal
  TGI: > 100 µM
NCI-H522 lung
  TGI: > 100 µM
PC-3 prostate
  TGI: > 100 µM
MDA-MB-231 breast
  TGI: > 100 µM
MOLT-4 leukemia
  TGI: > 100 µM
SR leukemia
  TGI: > 100 µM
A498 renal
  TGI: > 100 µM
SK-MEL-28 melanoma
  TGI: > 100 µM
IGROV1 ovarian
  TGI: > 100 µM
A549 NSCLC
  TGI: > 100 µM
SN12C renal
  TGI: > 100 µM
RXF 393 renal
  TGI: > 100 µM
MDA-N
  TGI: > 100 µM
ACHN renal
  TGI: > 100 µM
SF-539 CNS
  TGI: > 100 µM
M14 melanoma
  TGI: > 100 µM
COLO 205 colon
  TGI: > 100 µM
CCRF-CEM leukemia
  TGI: > 100 µM
NCI-H226 lung
  TGI: > 100 µM
HT29 colon
  TGI: > 100 µM
UACC-257 melanoma
  TGI: > 100 µM
SK-MEL-5 melanoma
  TGI: > 100 µM
RPMI-8226 leukemia
  TGI: > 100 µM
T-47D breast
  TGI: > 100 µM
NCI-H23 lung
  TGI: > 100 µM
UO-31 renal
  TGI: > 100 µM
HL-60(TB) leukemia
  TGI: > 100 µM
SF-268 CNS
  TGI: > 100 µM
MALME-3M melanoma
  TGI: > 100 µM
OVCAR-8 ovarian
  TGI: > 100 µM
U251 CNS
  TGI: > 100 µM
OVCAR-3 ovarian
  TGI: > 100 µM
CAKI-1 renal
  TGI: > 100 µM
EKVX NSCLC
  TGI: > 100 µM
UACC-62 melanoma
  TGI: > 100 µM
HS 578T breast
  TGI: > 100 µM
DU-145 prostate
  TGI: > 100 µM
LOX IMVI melanoma
  TGI: > 100 µM
MCF7 breast
  TGI: > 100 µM
SNB-19 CNS
  TGI: > 100 µM
OVCAR-5 ovarian
  TGI: > 100 µM
HCT-116 colon
  TGI: > 100 µM
SF-295 CNS
  TGI: > 100 µM

## COc1c2ccsc2c(OC)c2ccsc12
OVCAR-4 ovarian
  TGI: > 100 µM
HCC-2998 colon
  TGI: > 100 µM
SNB-75 CNS
  TGI: > 100 µM
SK-OV-3 ovarian
  TGI: > 100 µM
HOP-92 NSCLC
  TGI: > 100 µM
K-562 leukemia
  TGI: > 100 µM
KM12 colon
  TGI: > 100 µM
786-0 renal
  TGI: > 100 µM
HCT-15 colon
  TGI: > 100 µM
NCI/ADR-RES ovarian
  TGI: > 100 µM
SW-620 colon
  TGI: > 100 µM
MDA-MB-435
  TGI: > 100 µM
SK-MEL-2 melanoma
  TGI: > 100 µM
HOP-62 NSCLC
  TGI: > 100 µM
BT-549 breast
  TGI: > 100 µM
TK-10 renal
  TGI: > 100 µM
NCI-H522 lung
  TGI: > 100 µM
NCI-H460 lung
  TGI: > 100 µM
PC-3 prostate
  TGI: > 100 µM
MDA-MB-231 breast
  TGI: > 100 µM
MOLT-4 leukemia
  TGI: > 100 µM
SR leukemia
  TGI: > 100 µM
A498 renal
  TGI: > 100 µM
SK-MEL-28 melanoma
  TGI: > 100 µM
IGROV1 ovarian
  TGI: > 100 µM
A549 NSCLC
  TGI: > 100 µM
SN12C renal
  TGI: > 100 µM
RXF 393 renal
  TGI: > 100 µM
MDA-N
  TGI: > 100 µM
ACHN renal
  TGI: > 100 µM
SF-539 CNS
  TGI: > 100 µM
M14 melanoma
  TGI: > 100 µM
COLO 205 colon
  TGI: > 100 µM
CCRF-CEM leukemia
  TGI: > 100 µM
NCI-H226 lung
  TGI: > 100 µM
HT29 colon
  TGI: > 100 µM
UACC-257 melanoma
  TGI: > 100 µM
SK-MEL-5 melanoma
  TGI: > 100 µM
T-47D breast
  TGI: > 100 µM
NCI-H23 lung
  TGI: > 100 µM
UO-31 renal
  TGI: > 100 µM
HL-60(TB) leukemia
  TGI: > 100 µM
SF-268 CNS
  TGI: > 100 µM
MALME-3M melanoma
  TGI: > 100 µM
OVCAR-8 ovarian
  TGI: > 100 µM
U251 CNS
  TGI: > 100 µM
OVCAR-3 ovarian
  TGI: > 100 µM
CAKI-1 renal
  TGI: 40 µM
EKVX NSCLC
  TGI: > 100 µM
UACC-62 melanoma
  TGI: > 100 µM
HS 578T breast
  TGI: > 100 µM
DU-145 prostate
  TGI: > 100 µM
LOX IMVI melanoma
  TGI: > 100 µM
MCF7 breast
  TGI: > 100 µM
SNB-19 CNS
  TGI: > 100 µM
OVCAR-5 ovarian
  TGI: > 100 µM
HCT-116 colon
  TGI: > 100 µM
SF-295 CNS
  TGI: > 100 µM
